Assay results taken from PubChem BioAssay AID330 (DTP/NCI, 2004).
Inconclusive results and toxic doses are left out. The calls were made as follows: active = survival T/C of 150% or more; inactive = T/C below 125% in these data.

Test system: P388 leukemia ip, CD2F1 mice, survival T/C
Test: NCI In Vivo Anticancer Drug Screen. Data for tumor model P388 Leukemia (intraperitoneal) in CD2F1 (CDF1) mice
Conditions: endpoint: median survival time, higher = longer survival
Outline: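 Mice carrying the transplanted tumor received test compound or vehicle. Survival was recorded in each group, and the value is the treated-group measurement divided by that of the vehicle-treated control group.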

[1] = dose: 50.0 mg/kg/injection, schedule: Q01DX005 (ip), vehicle: saline
[2] = dose: 100.0 mg/kg/injection, schedule: Q01DX005 (ip), vehicle: saline
[3] = dose: 200.0 mg/kg/injection, schedule: Q01DX005 (ip), vehicle: saline
[4] = dose: 50.0 mg/kg/injection, schedule: Q01DX009 (ip), vehicle: saline with Tween-80
[5] = dose: 100.0 mg/kg/injection, schedule: Q01DX009 (ip), vehicle: saline with Tween-80
[6] = dose: 200.0 mg/kg/injection, schedule: Q01DX009 (ip), vehicle: saline with Tween-80
[7] = dose: 50.0 mg/kg/injection, schedule: Q01DX009 (ip), vehicle: Klucel (hydroxypropylcellulose) (HPC)
[8] = dose: 100.0 mg/kg/injection, schedule: Q01DX009 (ip), vehicle: Klucel (hydroxypropylcellulose) (HPC)
[9] = dose: 200.0 mg/kg/injection, schedule: Q01DX009 (ip), vehicle: Klucel (hydroxypropylcellulose) (HPC)

Measured: T/C

Cn1nc(C(=O)O)c(=O)[nH]c1=O
inactive: [1] 98 % of control | [2] 95 % of control | [3] 98 % of control

O=S(=O)(O)c1ccc2nccn2c1
inactive: dose: 100.0 mg/kg/injection, schedule: Q01DX001 (ip), vehicle: suspension in saline 100 % of control | dose: 200.0 mg/kg/injection, schedule: Q01DX001 (ip), vehicle: suspension in saline 89 % of control | dose: 400.0 mg/kg/injection, schedule: Q01DX001 (ip), vehicle: suspension in saline 100 % of control

FC(F)(F)c1ccccc1NC(=S)N1CCN(c2ccccc2)CC1
inactive: dose: 50.0 mg/kg/injection, schedule: Q01DX009 (ip), vehicle: gum acacia 109 % of control | dose: 100.0 mg/kg/injection, schedule: Q01DX009 (ip), vehicle: gum acacia 100 % of control | dose: 200.0 mg/kg/injection, schedule: Q01DX009 (ip), vehicle: gum acacia 92 % of control

O=[N+]([O-])c1ccc(Sc2ncccn2)c([N+](=O)[O-])c1
inactive: dose: 50.0 mg/kg/injection, schedule: Q01DX009 (ip), vehicle: suspension in saline 103 % of control | dose: 100.0 mg/kg/injection, schedule: Q01DX009 (ip), vehicle: suspension in saline 88 % of control | dose: 200.0 mg/kg/injection, schedule: Q01DX009 (ip), vehicle: suspension in saline 91 % of control

O=C1OC(c2ccc(Cl)cc2)=N/C1=C\c1ccccc1
inactive: [4] 120 % of control | [5] 90 % of control | [6] 100 % of control

CCCCCCCC[As](CCCCCCCC)SCC1OC(OC(C)=O)C(OC(C)=O)C(OC(C)=O)C1OC(C)=O (configuration not stated)
inactive: [4] 101 % of control | [5] 96 % of control | [6] 99 % of control

CC(NC(=O)C(N)CCC(=O)O)C(=O)O (configuration not stated)
inactive: [1] 103 % of control | [2] 100 % of control | [3] 107 % of control

NN1C(=O)C2C3C=CC(C4CC34)C2C1=O (configuration not stated)
inactive: dose: 6.25 mg/kg/injection, schedule: Q01DX009 (ip), vehicle: Klucel (hydroxypropylcellulose) (HPC) 100 % of control | dose: 12.5 mg/kg/injection, schedule: Q01DX009 (ip), vehicle: Klucel (hydroxypropylcellulose) (HPC) 110 % of control

NC(=O)CCCC(C(N)=O)c1ccccc1 (configuration not stated)
inactive: dose: 100.0 mg/kg/injection, schedule: Q01DX001 (ip), vehicle: Klucel (hydroxypropylcellulose) (HPC) 100 % of control | dose: 200.0 mg/kg/injection, schedule: Q01DX001 (ip), vehicle: Klucel (hydroxypropylcellulose) (HPC) 105 % of control | dose: 400.0 mg/kg/injection, schedule: Q01DX001 (ip), vehicle: Klucel (hydroxypropylcellulose) (HPC) 99 % of control

COc1cc2c(cc1O)CCCCC2O (configuration not stated)
inactive: dose: 6.25 mg/kg/injection, schedule: Q01DX009 (ip), vehicle: DMSO 94 % of control | dose: 12.5 mg/kg/injection, schedule: Q01DX009 (ip), vehicle: DMSO 102 % of control | dose: 25.0 mg/kg/injection, schedule: Q01DX009 (ip), vehicle: DMSO 87 % of control | [7] 94 % of control | [8] 97 % of control | [9] 94 % of control

O=C1c2ccccc2C(=O)c2c(NCCN3CCOCC3)ccc(NCCN3CCOCC3)c21
inactive: [4] 108 % of control | [5] 109 % of control | [6] 115 % of control | dose: 400.0 mg/kg/injection, schedule: Q01DX009 (ip), vehicle: saline with Tween-80 117 % of control

Cc1ccc(N=Cc2ccc(C=Nc3ccc(C)cc3C)cc2)c(C)c1
inactive: [7] 92 % of control | [8] 91 % of control | [9] 97 % of control

CON=C1C(C)(C)C(=NOC)C1(C)C
inactive: dose: 12.5 mg/kg/injection, schedule: Q01DX005 (ip), vehicle: Klucel (hydroxypropylcellulose) (HPC) 90 % of control | dose: 25.0 mg/kg/injection, schedule: Q01DX005 (ip), vehicle: Klucel (hydroxypropylcellulose) (HPC) 86 % of control | dose: 50.0 mg/kg/injection, schedule: Q01DX005 (ip), vehicle: Klucel (hydroxypropylcellulose) (HPC) 99 % of control
